Measured values taken from ChEMBL document CHEMBL5518237, “Design of Novel 2-Phenylquinazolin-4-amines as Selective CYP1B1 Inhibitors for Overcoming Paclitaxel Resistance in A549 Cells” (J Med Chem, 2024).
pIC50: −log10 of the molar value. Activity calls are given as the source filed them. The rule behind the calls is not given here.

Experiments:
CYP1B1 [1] = molecular target: T1, CYP1B1 (Homo sapiens, UniProt Q16678); test: Inhibition of human recombinant CYP1B1 using 7-ethoxyresorufin as substrate at 0.01 uM preincubated with enzyme for 5 mins followed by fluorescent substrate and NADPH addition and measured after 35 mins by EROD assay; assay type: ADME; details: recombinant CYP1B1, probe 7-ethoxyresorufin, time 40 min
T1 sequence (Q16678 whole entry): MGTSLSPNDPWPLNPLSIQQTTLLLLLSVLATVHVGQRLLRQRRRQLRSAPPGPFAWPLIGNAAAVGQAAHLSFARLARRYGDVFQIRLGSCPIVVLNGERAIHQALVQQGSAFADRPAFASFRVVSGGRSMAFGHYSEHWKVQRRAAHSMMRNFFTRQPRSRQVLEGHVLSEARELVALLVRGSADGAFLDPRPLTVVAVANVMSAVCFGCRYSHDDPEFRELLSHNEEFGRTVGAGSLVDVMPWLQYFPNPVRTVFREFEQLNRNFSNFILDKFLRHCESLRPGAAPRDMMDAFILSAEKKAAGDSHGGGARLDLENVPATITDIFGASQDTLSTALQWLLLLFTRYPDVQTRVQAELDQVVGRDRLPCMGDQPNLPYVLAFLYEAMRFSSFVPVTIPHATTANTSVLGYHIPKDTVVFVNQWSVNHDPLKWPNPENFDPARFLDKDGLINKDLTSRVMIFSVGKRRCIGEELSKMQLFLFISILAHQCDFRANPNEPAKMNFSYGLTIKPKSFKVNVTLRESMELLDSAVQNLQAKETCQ

CYP1B1 [2] = molecular target: T1, CYP1B1; test: Inhibition of human recombinant CYP1B1 using 7-ethoxyresorufin as substrate at 1 uM preincubated with enzyme for 5 mins followed by fluorescent substrate and NADPH addition and measured after 35 mins by EROD assay; assay type: ADME; details: recombinant CYP1B1, probe 7-ethoxyresorufin, time 40 min
Cytochrome P450 1B1 = molecular target: T2, Cytochrome P450 1B1 (Homo sapiens, UniProt Q16678); test: Inhibition of human recombinant CYP1B1 using 7-ethoxyresorufin as substrate preincubated with enzyme for 5 mins followed by fluorescent substrate and NADPH addition and measured after 35 mins by EROD assay; assay type: ADME
T2 sequence (Q16678 whole entry): T1 sequence (Q16678 whole entry)

Cytochrome P450 1A1 = molecular target: T3, Cytochrome P450 1A1 (Homo sapiens, UniProt P04798); test: Inhibition of human recombinant CYP1A1 using 7-ethoxyresorufin as substrate preincubated with enzyme for 5 mins followed by fluorescent substrate and NADPH addition and measured after 15 mins by EROD assay; assay type: ADME
T3 sequence (P04798 whole entry): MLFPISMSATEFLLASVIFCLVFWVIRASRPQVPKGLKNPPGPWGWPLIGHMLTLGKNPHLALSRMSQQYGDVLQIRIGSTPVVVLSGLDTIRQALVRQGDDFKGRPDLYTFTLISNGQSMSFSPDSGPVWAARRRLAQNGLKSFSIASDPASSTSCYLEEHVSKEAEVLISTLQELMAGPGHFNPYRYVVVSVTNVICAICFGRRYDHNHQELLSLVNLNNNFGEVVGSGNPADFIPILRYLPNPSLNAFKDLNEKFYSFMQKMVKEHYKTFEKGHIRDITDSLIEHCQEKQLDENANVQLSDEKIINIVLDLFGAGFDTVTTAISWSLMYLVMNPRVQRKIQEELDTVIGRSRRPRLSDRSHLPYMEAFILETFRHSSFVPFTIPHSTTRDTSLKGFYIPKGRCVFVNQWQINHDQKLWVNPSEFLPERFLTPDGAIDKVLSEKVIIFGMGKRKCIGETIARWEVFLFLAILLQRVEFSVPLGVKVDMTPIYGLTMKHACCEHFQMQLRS

Cytochrome P450 1A2 = molecular target: T4, Cytochrome P450 1A2 (Homo sapiens, UniProt P05177); test: Inhibition of human recombinant CYP1A2 using 7-ethoxyresorufin as substrate preincubated with enzyme for 5 mins followed by fluorescent substrate and NADPH addition and measured after 50 mins by EROD assay; assay type: ADME
T4 sequence (P05177 whole entry): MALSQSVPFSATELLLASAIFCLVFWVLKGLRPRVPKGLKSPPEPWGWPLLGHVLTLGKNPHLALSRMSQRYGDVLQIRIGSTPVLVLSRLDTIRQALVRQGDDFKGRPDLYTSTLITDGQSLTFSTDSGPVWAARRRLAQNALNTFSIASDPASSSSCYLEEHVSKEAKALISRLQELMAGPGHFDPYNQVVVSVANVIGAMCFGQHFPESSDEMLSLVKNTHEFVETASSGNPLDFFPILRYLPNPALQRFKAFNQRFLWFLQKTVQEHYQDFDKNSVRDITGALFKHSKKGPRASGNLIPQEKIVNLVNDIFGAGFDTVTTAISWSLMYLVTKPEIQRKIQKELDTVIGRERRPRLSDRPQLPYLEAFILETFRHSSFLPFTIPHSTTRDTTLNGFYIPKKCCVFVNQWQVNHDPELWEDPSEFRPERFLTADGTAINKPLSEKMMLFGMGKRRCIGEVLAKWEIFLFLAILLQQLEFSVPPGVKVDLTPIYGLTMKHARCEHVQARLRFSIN

CYP1A1 versus CYP1B1 = test: (§1) Selectivity ratio of IC50 for Inhibition of human recombinant CYP1A1 to IC50 for Inhibition of human recombinant CYP1B1; assay type: ADME; details: recombinant CYP1A1 and recombinant CYP1B1, read-out: Ratio IC50
CYP1A2 versus CYP1B1 = test: (§2) Selectivity ratio of IC50 for Inhibition of human recombinant CYP1A2 to IC50 for Inhibition of human recombinant CYP1B1; assay type: ADME; details: recombinant CYP1A2 and recombinant CYP1B1, read-out: Ratio IC50
[3] = n-Octanol/water partition coefficient, logP of the compound by HPLC analysis; assay type: physicochemical
A549 [4] = test: Cytotoxicity against human A549 cells assessed as reduction in cell viability at 0.625 to 20 uM incubated for 48 hrs by MTT assay; assay type: toxicity, cell-based; details: a549, 48 h, dose 0.625-20 µM
HEK-293T = test: Cytotoxicity against human HEK293T cells assessed as reduction in cell viability at 0.625 to 20 uM incubated for 48 hrs by MTT assay; assay type: toxicity, cell-based; details: dose 0.625-20 µM
A549 [5] = test: Induction of apoptosis in DMBA-stimulated PTX resistant human A549 cells assessed as apoptosis rate at 5 uM incubated for 24 hrs by flow cytometry (reference value: 6.67 +/- 1.03%); assay type: functional
[6] = as §1; assay type: ADME; details: recombinant enzyme
[7] = as §2; assay type: ADME; details: recombinant enzyme
[8] = n-Octanol/PBS partition coefficient, log D of the radiolabeled compound at 0.37 MBq at pH 7.4 by gamma-counting analysis; assay type: physicochemical; details: octanol/water
[9] = Drug uptake in human HCT-116 cells using radiolabeled compound at 0.037 MBq incubated for 120 mins by gamma-counting analysis; assay type: ADME, cell-based; details: hct-116, 2 h
[10] = Drug uptake in human A549 cells using radiolabeled compound at 0.037 MBq incubated for 120 mins by gamma-counting analysis; assay type: ADME, cell-based; details: a549, 2 h
[11] = Drug uptake in human HEK293T cells using radiolabeled compound at 0.037 MBq incubated for 120 mins by gamma-counting analysis; assay type: ADME, cell-based; details: hek-293t, 2 h
A549 [12] = test: Reversal of DMBA-stimulated PTX resistance in human A549 cells assessed as decrease in cell viability at 1.25 to 10 uM incubated for 24 hrs in presence of DMBA and paclitaxel by MTT assay; assay type: functional, cell-based; details: dose 1.25-10 µM
A549 [13] = test: Inhibition of tumor metastasis in DMBA-stimulated PTX resistant human A549 cells assessed as inhibition of cell migration by measuring decrease in crawling ability of cells at 2.5 to 10 uM incubated for 48 hrs by wound healing assay; assay type: functional, cell-based; details: dose 2.5-10 µM

Row | inhibition at 35 min, 0.01 µM (CYP1B1 [1]) | inhibition at 35 min, 1 µM (CYP1B1 [2]) | pIC50 (Cytochrome P450 1B1) | pIC50 (Cytochrome P450 1A1) | pIC50 (Cytochrome P450 1A2) | logP ([3]; n-octanol/water, read-out: logP) | logD [8] | Drug uptake [9] | Drug uptake [10] | Drug uptake [11] | logP ([3]; octanol/water) | Structure (SMILES) | selectivity ratio (CYP1A1 versus CYP1B1) | selectivity ratio (CYP1A2 versus CYP1B1) | Activity (A549 [4]) | Activity (HEK-293T) | Activity (A549 [5]) | Ratio IC50 [6] | Ratio IC50 [7] | Activity (A549 [12]) | inhibition (A549 [13])
1 | 90.1% | 95.5% | 9.82 | 7.48 | 6.22 | 3.91 | – | – | – | – | – | Cl.FCCNc1nc(-c2ccc(I)cc2)nc2ccccc12 | 221 | 4030 | Non-Toxic | Non-Toxic | 21.05% | – | – | – | –
2 | – | – | 12.13 | 7.58 | 5.95 | – | 3.55 | Active | Active | Active | – | CNc1nc(-c2ccc(I)cc2)nc2ccccc12 [listing 1 of 2 here] | – | – | – | – | – | 3.54 10^4No_unit | 1.49 10^6No_unit | – | –
3 | 96.6% | 97.1% | 12.77 | 7.56 | 6.08 | – | – | – | – | – | 3.15 | CNc1nc(-c2ccc(I)cc2)nc2ccccc12.Cl | – | – | Non-Toxic | Non-Toxic | 32.84% | 1.63 10^5No_unit | 4.92 10^6No_unit | – | –

The next lines start with the compound.

Row | Structure (SMILES) | inhibition at 35 min, 0.01 µM (CYP1B1 [1]) | inhibition at 35 min, 1 µM (CYP1B1 [2]) | pIC50 (Cytochrome P450 1B1) | pIC50 (Cytochrome P450 1A1) | pIC50 (Cytochrome P450 1A2) | logP ([3]; n-octanol/water, read-out: logP) | logD [8] | Drug uptake [9] | Drug uptake [10] | Drug uptake [11] | logP ([3]; octanol/water) | selectivity ratio (CYP1A1 versus CYP1B1) | selectivity ratio (CYP1A2 versus CYP1B1) | Activity (A549 [4]) | Activity (HEK-293T) | Activity (A549 [5]) | Ratio IC50 [6] | Ratio IC50 [7] | Activity (A549 [12]) | inhibition (A549 [13])
4 | CNc1nc(-c2ccc(I)cc2)nc2ccccc12 [listing 2 of 2 here] | – | – | – | – | – | – | – | – | – | – | – | – | – | – | – | – | – | – | Active | Active
5 | CCNc1nc(-c2ccc(I)cc2)nc2ccccc12 | – | – | – | – | – | – | – | – | – | – | – | – | – | – | – | – | – | – | Active | Active
